# Laboratory results: patent publication US8754220B2, “Quinolizidinone carboxamide M1 receptor positive allosteric modulators” (Merck Sharp & Dohme Corp., priority 2009, dated 2014)
# Like-named read-outs stand apart in the source and are kept apart here.
# Biological target: T1, acetylcholine muscarinic M1 receptor (CHOnfat/hM1 cells) (Homo sapiens, UniProt P11229)
# T1 construct: expressed in transfected cells; host or cells: CHOnfat (CHO cells; selected with Geneticin)
# T1 sequence (P11229 1-460): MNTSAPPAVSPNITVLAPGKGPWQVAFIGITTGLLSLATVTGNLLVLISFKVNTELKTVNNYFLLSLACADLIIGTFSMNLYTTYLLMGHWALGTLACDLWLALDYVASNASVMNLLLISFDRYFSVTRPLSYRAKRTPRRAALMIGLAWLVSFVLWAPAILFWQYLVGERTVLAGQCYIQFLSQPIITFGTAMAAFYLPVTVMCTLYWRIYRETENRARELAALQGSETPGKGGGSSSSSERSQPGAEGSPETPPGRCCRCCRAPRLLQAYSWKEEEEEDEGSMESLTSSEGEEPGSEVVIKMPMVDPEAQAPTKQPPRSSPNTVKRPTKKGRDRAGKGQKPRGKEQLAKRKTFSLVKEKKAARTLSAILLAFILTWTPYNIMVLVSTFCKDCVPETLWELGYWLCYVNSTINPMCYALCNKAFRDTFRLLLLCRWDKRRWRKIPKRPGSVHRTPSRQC
# Test: FLIPR intracellular calcium assay for M1 positive allosteric modulator activity (acetylcholine EC20)
# Type: cell-based
# Protocol: The assay studies the effect of one or several concentrations of test compounds on basal or acetylcholine-stimulated Ca^2+ levels using FLIPR.
# Compounds are prepared and subjected to a preincubation period of 4 min. Thereafter, a single EC20 concentration of acetylcholine is added to each well (3 nM final). The intracellular Ca^2+ level of each sample is measured and compared to an acetylcholine control to determine any modulatory activity.
# Cells: CHOnfat/hM1, hM2, hM3 or hM4 cells are plated 24 hr before the assay at a density of 18,000 cells/well (100 μL) in a 384 well plate. CHOnfat/hM1 and CHOnfat/hM3 Growth Medium: 90% DMEM (Hi Glucose); 10% HI FBS; 2 mM L-glutamine; 0.1 mM NEAA; Pen-Strep; and 1 mg/ml Geneticin, are added. For M2Gqi5CHOnfat and M4Gqi5CHOnfat cells, an additional 600 μg/ml hygromycin is added.
# Equipment: 384 well plate, 120 μL addition plate; 96-well Whatman 2 ml Uniplate Incubator, 37° C., 5% CO2; Skatron EMBLA-384 Plate Washer; Multimek Pipetting System; Genesis Freedom 200 System; Mosquito System; Temo Nanoliter Pipetting System; and FLIPR^384 Fluorometric Imaging Plate Reader System are used.
# Buffers. Assay Buffer: Hanks Balanced Salt Solution, with 20 mM Hepes, 2.5 mM Probenecid (Sigma P-8761) first dissolved in 1 N NaOH, 1% Bovine Serum Albumin (Sigma A-9647). Dye Loading Buffer: Assay Buffer plus 1% Fetal Bovine Serum and Fluo-4AM/Pluronic Acid Mixture. 2 mM Fluo-4AM ester stock in DMSO (Molecular Probes F-14202) Concentration of 2 μM in buffer for a final concentration of 1 μM in Assay. 20% Pluronic Acid Solution stock, with concentration of 0.04% in Buffer, 0.02% in Assay.
# 65 μL of 2 mM Fluo-4AM are mixed with 130 μL of 20% Pluronic Acid. The resulting solution and 650 μL FBS is added to the assay buffer for a total volume of 65 mL. Positive Controls: 4-Br-A23187: 10 mM in DMSO; final concentration 10 μM. Acetylcholine: 10 mM in water, working stock at both 20 μM and 30 μM in assay buffer, final concentration of 10 μM. This is used to check the maximum stimulation of the CHOK1/hM1 cells. 20 μM (2×) acetylcholine is added in the preincubation part of the assay, and the 30 μM (3×) stock is added in the second part. (EC20) Acetylcholine: 10 mM in water, working stock of 9 nM (3×), and final concentration in assay is 3 nM. This is used after the preincubation with test compounds. Addition of the EC20 Acetylcholine to each well with a test compound will ascertain any modulator activity. 24 wells contain 3 nM Acetylcholine alone as a control.
# Screening Plate: Compounds are titrated in 96-well plates (columns 2-11), 100% DMSO, started at a concentration of 15 mM (150× stock concentration), and 3-fold serial dilutions using Genesis Freedom200 System. Four 96-well plates are combined into a 384-well plate using Mosquito Nanoliter Pipetting System by transferring 1 μl of serial diluted compounds to each well, and 1 mM acetylcholine (100× stock concentration) were added as a control. Using Temo, 49 μl assay buffer is added to each well of the 384-well plate right before assay.
# In a 96-well Whatman 2 ml Uniplate, 9 nM Acetylcholine (3×) is pipetted into wells corresponding to the screening compounds, and into control wells. The 30 μM acetylcholine control (3×) is added into control wells, and the 3× agonist plate is transferred into a 384 well plate.
# Cells are washed three times with 100 μL of buffer, leaving 30 μL of buffer in each well. Using Multimek, 30 μL of Dye Loading Buffer is added into each well and incubated at 37° C., 5% CO2 for up to one hr.
# After 60 min, the cells are washed three times with 100 μL of buffer, leaving 30 μL of buffer in each well. The cell plate, screening plate, and agonist addition plates are placed on the platform in the FLIPR and the door closed. A signal test to check background fluorescence and basal fluorescence signal is performed. Laser intensity is adjusted if necessary. […]
# [1] = CHOnfat/hM1 cells, 4 min preincubation, then EC20 acetylcholine (3 nM final), FLIPR Ca2+, read-out: IP Value (inflection point)
SMILES,EC50 [1] [nM],EC50 [nM]
"N#CC1(c2ccccn2)CCN(Cc2cc(C(=O)N[C@H]3COCC[C@@H]3O)c(=O)n3ccccc23)CC1 (racemic) [Example 8, rac-1-[(4-Cyano-4-pyridin-2-ylpiperidin-1yl)methyl]-N-[(3R,4R)-4-hydroxytetrahydro-2H-pyran-3-yl]-4-oxo-4H-quinolizine-3-carboxamide]",220,
"Cn1cc(-c2ccc(Cc3cc(C(=O)N[C@H]4CCCC[C@@H]4O)c(=O)n4ccccc34)nc2)cn1 [Example 3, N-[(1S,2S)-2-Hydroxycyclohexyl]-{-[5-(1-methyl-1H-pyrazol-4-yl)pyridine-2-yl]methyl}-4-oxo-4H-quinolizine-3-carboxamide]",15,
"N#CC1(c2ncc(Br)cc2Br)CCN(Cc2cc(C(=O)N[C@H]3CCOC[C@@H]3O)c(=O)n3ccccc23)CC1 [Example 10, 1-{[4-Cyano-4-(3,5-dibromopyridin-2-yl)piperidin-1-yl]methyl}-N-[(3R,4S)-3-hydroxytetrahydro-2H-pyran-4-yl]-4-oxo-4H-quinolizine-3-carboxamide]",,14
"O=C(N[C@H]1CCCC[C@@H]1O)c1cc(Cc2ccc(Br)cn2)c2ccccn2c1=O [Example 2, 1-[(5-Bromopyridin-2-yl)methyl]-N-[(1S,2S)-2-hydroxycyclohexyl]-4-oxo-4H-quinolizine-3-carboxamide]",105,
"Cc1cccn2c(=O)c(C(=O)NC3CCOCC3)cc(CN3CCC(C#N)(c4ccccn4)CC3)c12 [Example 25, 1-[(4-Cyano-4-pyridin-2-ylpiperidin-1-yl)methyl]-9-methyl-4-oxo-N-(tetrahydro-2H-pyran-4-yl)-4H-quinolizine-3-carboxamide]",2100,
